Measured values from ChEMBL document CHEMBL3046322, “Insect growth regulatory effects by diterpenes from Calceolaria talcana Grau & Ehrhart (Calceolariaceae: Scrophulariaceae) against Spodoptera frugiperda and Drosophila melanogaster” (2013).
In brackets after ≈: the same amount, converted by molar mass. Activity calls are given as the source filed them. The calls are words filed in the database; no cut-off is given here.

Key:
Spodoptera frugiperda [1] = assay: Growth inhibitory activity against first-instar larval stage of Spodoptera frugiperda (fall armyworm) fed with compound incorporated diet assessed as weight gained at 50 ug/ml after 7 days (reference value: 100%); format: functional; parameters: scale not given: the % may be the effect or the level left
Spodoptera frugiperda [2] = assay: Insecticidal activity against first-instar larval stage of Spodoptera frugiperda (fall armyworm) fed with compound incorporated diet assessed as mortality at 20 ug/ml after 7 days (reference value: 5.6%); format: functional; settings: 168 h
Spodoptera frugiperda [3] = assay: Growth inhibitory activity against first-instar larval stage of Spodoptera frugiperda (fall armyworm) fed with compound incorporated diet assessed as length gained at 10 ug/ml after 21 days (reference value: 100%); format: functional
Spodoptera frugiperda [4] = assay: Insecticidal activity against first-instar larval stage of Spodoptera frugiperda (fall armyworm) fed with compound incorporated diet assessed as mortality at 50 ug/ml after 7 days (reference value: 5.6%); format: functional; settings: 168 h
Spodoptera frugiperda [5] = assay: Acute toxicity against last larval stage of Spodoptera frugiperda (fall armyworm) assessed as mortality applied topically onto abdomen measured after 7 days; format: functional; settings: topical, 168 h
Spodoptera frugiperda [6] = assay: Growth inhibitory activity against Spodoptera frugiperda (fall armyworm) larvae fed with compound containing diet assessed as reduction in adult emergence at 35 ug/ml; format: functional
Spodoptera frugiperda [7] = assay: Growth inhibitory activity against Spodoptera frugiperda (fall armyworm) larvae fed with compound containing diet assessed as reduction in pupae weight at 25 ug/ml; format: functional, organism-based
Spodoptera frugiperda [8] = assay: Acute toxicity against last larval stage of Spodoptera frugiperda (fall armyworm) assessed as survival at 10 ug/ml applied topically onto abdomen measured after 24 hr (reference value: 98.8 +/-3.5%); format: functional
Spodoptera frugiperda [9] = assay: Insecticidal activity against first-instar larval stage of Spodoptera frugiperda (fall armyworm) fed with compound incorporated diet assessed as mortality at 35 ug/ml after 7 days (reference value: 5.6%); format: functional; settings: 168 h
Spodoptera frugiperda [10] = assay: Insecticidal activity against first-instar larval stage of Spodoptera frugiperda (fall armyworm) fed with compound incorporated diet assessed as mortality at 40 ug/ml after 7 days; format: functional, organism-based
Spodoptera frugiperda [11] = assay: Growth inhibitory activity against Spodoptera frugiperda (fall armyworm) larvae fed with compound containing diet assessed as reduction in survival pupation at >10 ug/ml; format: functional
Spodoptera frugiperda [12] = assay: Growth inhibitory activity against first-instar larval stage of Spodoptera frugiperda (fall armyworm) fed with compound incorporated diet assessed as weight gained at 20 ug/ml after 7 days (reference value: 100%); format: functional; parameters: scale not given: the % may be the effect or the level left
Spodoptera frugiperda [13] = assay: Growth inhibitory activity against first-instar larval stage of Spodoptera frugiperda (fall armyworm) fed with compound incorporated diet assessed as weight gained at 5 ug/ml after 7 days (reference value: 100%); format: functional; parameters: scale not given: the % may be the effect or the level left
Spodoptera frugiperda [14] = assay: Growth inhibitory activity against first-instar larval stage of Spodoptera frugiperda (fall armyworm) fed with compound incorporated diet assessed as length gained at 35 ug/ml after 21 days (reference value: 100%); format: functional
Spodoptera frugiperda [15] = assay: Insecticidal activity against first-instar larval stage of Spodoptera frugiperda (fall armyworm) fed with compound incorporated diet assessed as mortality at 50 ug/ml after 21 days (reference value: 5.6%); format: functional; settings: 504 h
Spodoptera frugiperda [16] = assay: Growth inhibitory activity against Spodoptera frugiperda (fall armyworm) larvae fed with compound containing diet assessed as growth index at 20 ug/ml (reference value: 0.95 +/-0.02 no_unit); format: functional
Spodoptera frugiperda [17] = assay: Growth inhibitory activity against po dosed Spodoptera frugiperda (fall armyworm) larvae assessed as promotion of apolysis to fifth instar with ecdysis inhibition at 5 to 20 ug/ml; format: functional, organism-based
Spodoptera frugiperda [18] = assay: Growth inhibitory activity against first-instar larval stage of Spodoptera frugiperda (fall armyworm) fed with compound incorporated diet assessed as length gained at 5 ug/ml after 21 days (reference value: 100%); format: functional
Spodoptera frugiperda [19] = assay: Growth inhibitory activity against first-instar larval stage of Spodoptera frugiperda (fall armyworm) fed with compound incorporated diet assessed as weight gained at 20 ug/ml after 21 days (reference value: 100%); format: functional
Spodoptera frugiperda [20] = assay: Growth inhibitory activity against first-instar larval stage of Spodoptera frugiperda (fall armyworm) fed with compound incorporated diet assessed as weight gained at 35 ug/ml after 21 days (reference value: 100%); format: functional
Spodoptera frugiperda [21] = assay: Growth inhibitory activity against Spodoptera frugiperda (fall armyworm) larvae fed with compound containing diet assessed as relative growth index at 5 ug/ml (reference value: 1.0 no_unit); format: functional
Spodoptera frugiperda [22] = assay: Insecticidal activity against first-instar larval stage of Spodoptera frugiperda (fall armyworm) fed with compound incorporated diet assessed as mortality at 20 ug/ml after 21 days (reference value: 5.6%); format: functional; settings: 504 h
Spodoptera frugiperda [23] = assay: Growth inhibitory activity against first-instar larval stage of Spodoptera frugiperda (fall armyworm) fed with compound incorporated diet assessed as length gained at 20 ug/ml after 7 days (reference value: 100%); format: functional
Spodoptera frugiperda [24] = assay: Insecticidal activity against first-instar larval stage of Spodoptera frugiperda (fall armyworm) fed with compound incorporated diet assessed as mortality at 5 ug/ml after 21 days (reference value: 5.6%); format: functional; settings: 504 h
Spodoptera frugiperda [25] = assay: Growth inhibitory activity against first-instar larval stage of Spodoptera frugiperda (fall armyworm) fed with compound incorporated diet assessed as weight gained at 10 ug/ml after 21 days (reference value: 100%); format: functional
Spodoptera frugiperda [26] = assay: Growth inhibitory activity against first-instar larval stage of Spodoptera frugiperda (fall armyworm) fed with compound incorporated diet assessed as length gained at 35 ug/ml after 7 days (reference value: 100%); format: functional
Spodoptera frugiperda [27] = assay: Insecticidal activity against first-instar larval stage of Spodoptera frugiperda (fall armyworm) fed with compound incorporated diet assessed as mortality at 10 ug/ml after 7 days (reference value: 5.6%); format: functional; settings: 168 h
Spodoptera frugiperda [28] = assay: Insecticidal activity against first-instar larval stage of Spodoptera frugiperda (fall armyworm) fed with compound incorporated diet assessed as mortality at 35 ug/ml after 21 days (reference value: 5.6%); format: functional; settings: 504 h
Spodoptera frugiperda [29] = assay: Insecticidal activity against first-instar larval stage of Spodoptera frugiperda (fall armyworm) fed with compound incorporated diet assessed as mortality at 5 ug/ml after 7 days (reference value: 5.6%); format: functional; settings: 168 h
Drosophila melanogaster = assay: Insecticidal activity against Drosophila melanogaster larvae fed with compound incorporated diet assessed as mortality after 72 hr by not choice test; format: functional
Spodoptera frugiperda [30] = assay: Growth inhibitory activity against first-instar larval stage of Spodoptera frugiperda (fall armyworm) fed with compound incorporated diet assessed as length gained at 5 ug/ml after 7 days (reference value: 100%); format: functional; parameters: scale not given: the % may be the effect or the level left
Spodoptera frugiperda [31] = assay: Insecticidal activity against first-instar larval stage of Spodoptera frugiperda (fall armyworm) fed with compound incorporated diet assessed as mortality at 10 ug/ml after 21 days (reference value: 5.6%); format: functional; settings: 504 h
Spodoptera frugiperda [32] = assay: Growth inhibitory activity against first-instar larval stage of Spodoptera frugiperda (fall armyworm) fed with compound incorporated diet assessed as length gained at 50 ug/ml after 21 days (reference value: 100%); format: functional
Spodoptera frugiperda [33] = assay: Growth inhibitory activity against po dosed fourth-instar larvae of Spodoptera frugiperda (fall armyworm) assessed as proportion of prothetely appearance of precocious pupal structure in larvae after 48 to 72 hr; format: functional; parameters: scale not given: the % may be the effect or the level left
Spodoptera frugiperda [34] = assay: Growth inhibitory activity against first-instar larval stage of Spodoptera frugiperda (fall armyworm) fed with compound incorporated diet assessed as length gained at 20 ug/ml after 21 days (reference value: 100%); format: functional; parameters: scale not given: the % may be the effect or the level left
Spodoptera frugiperda [35] = assay: Growth inhibitory activity against first-instar larval stage of Spodoptera frugiperda (fall armyworm) fed with compound incorporated diet assessed as length gained at 50 ug/ml after 7 days (reference value: 100%); format: functional
Spodoptera frugiperda [36] = assay: Growth inhibitory activity against Spodoptera frugiperda (fall armyworm) larvae fed with compound containing diet assessed as growth index at 35 ug/ml (reference value: 0.95 +/-0.02 no_unit); format: functional

Structure (SMILES)	Activity (Spodoptera frugiperda [1]) [%]	mortality at 20 µg/mL (Spodoptera frugiperda [2]) [%]	Length gained relative to control (Spodoptera frugiperda [3]) [%]	mortality at 50 µg/mL (Spodoptera frugiperda [4]) [%]	inhibition at 35 µg/mL (Spodoptera frugiperda [6]) [%]	inhibition (Spodoptera frugiperda [7])	Activity (Spodoptera frugiperda [8]) [%]	mortality at 35 µg/mL (Spodoptera frugiperda [9]) [%]	Activity (Spodoptera frugiperda [12]) [%]	Activity (Spodoptera frugiperda [13]) [%]	Length gained relative to control (Spodoptera frugiperda [14]) [%]	mortality at 50 µg/mL (Spodoptera frugiperda [15]) [%]	Growth_index (Spodoptera frugiperda [16])	Activity (Spodoptera frugiperda [17])	Length gained (% of control) (Spodoptera frugiperda [18]) [%]	Weight gain relative to control (Spodoptera frugiperda [19]) [%]	Weight gain relative to control (Spodoptera frugiperda [20]) [%]	Growth_index (Spodoptera frugiperda [21])	mortality at 20 µg/mL (Spodoptera frugiperda [22]) [%]	Length gained relative to control (Spodoptera frugiperda [23]) [%]	other results
C=CC(C)(C)C1=C(O)C(=O)c2ccccc2C1=O	0	91.7	39.8	100	0	Active	6.8	95.8	15.9	47.4	4.1	100	0.12	Active	64.3	9	7.8	0.69	98	20.8	LD50 (Spodoptera frugiperda [5]): 3.64 µg/mL; mortality (Spodoptera frugiperda [10]): Active; inhibition (INH) (Spodoptera frugiperda [11]): 0%; mortality at 5 µg/mL (Spodoptera frugiperda [24]): 66.7%; Weight gain (% of control) (Spodoptera frugiperda [25]): 27.7%; Length gained relative to control (Spodoptera frugiperda [26]): 10%; mortality at 10 µg/mL (Spodoptera frugiperda [27]): 83.3%; mortality at 35 µg/mL (Spodoptera frugiperda [28]): 100%; mortality at 5 µg/mL (Spodoptera frugiperda [29]): 41.7%; LC50 (Drosophila melanogaster): 15.8 µg/mL (≈ 65.2 µM); Activity (Spodoptera frugiperda [30]): 50.8%; mortality at 10 µg/mL (Spodoptera frugiperda [31]): 41.7%; Length gained (% of control) (Spodoptera frugiperda [32]): 0%; Activity (Spodoptera frugiperda [33]): 30%; Activity (Spodoptera frugiperda [34]): 4.1%; Length gain relative to control (Spodoptera frugiperda [35]): 0%; Growth_index (Spodoptera frugiperda [36]): 0.09
C=C[C@]1(C)CC[C@H]2C(=CC[C@@H]3[C@](C)(CO)CC[C@@H]4C[C@@]432)C1	0	55.8	30.8	100	0	Active	3.5	98.4	6.8	25.1	0	100	0.19	Active	55	0	0	0.45	100	18.3	LD50 (Spodoptera frugiperda [5]): 3.02 µg/mL; mortality (Spodoptera frugiperda [10]): Active; inhibition (INH) (Spodoptera frugiperda [11]): 0%; mortality at 5 µg/mL (Spodoptera frugiperda [24]): 55.8%; Weight gain (% of control) (Spodoptera frugiperda [25]): 10.6%; Length gained relative to control (Spodoptera frugiperda [26]): 7.5%; mortality at 10 µg/mL (Spodoptera frugiperda [27]): 37.3%; mortality at 35 µg/mL (Spodoptera frugiperda [28]): 100%; mortality at 5 µg/mL (Spodoptera frugiperda [29]): 20.8%; LC50 (Drosophila melanogaster): 9.2 µg/mL (≈ 32.1 µM); Activity (Spodoptera frugiperda [30]): 68.7%; mortality at 10 µg/mL (Spodoptera frugiperda [31]): 68.6%; Length gained (% of control) (Spodoptera frugiperda [32]): 0%; Activity (Spodoptera frugiperda [33]): 30%; Activity (Spodoptera frugiperda [34]): 0%; Length gain relative to control (Spodoptera frugiperda [35]): 0%; Growth_index (Spodoptera frugiperda [36]): 0.09
CC(C)c1ccc2c(c1)CC[C@H]1[C@](C)(CO)CCC[C@]21C [POMIFERIN A]	41.3	46.8	59.4	83.3	0	Active	69.1	63	56.2	89.5	37.4	44	0.91	Active	85.6	50.6	38.2	0.99	15	64.2	LD50 (Spodoptera frugiperda [5]): 17.5 µg/mL; mortality at 5 µg/mL (Spodoptera frugiperda [24]): 4.16%; Weight gain (% of control) (Spodoptera frugiperda [25]): 65.8%; Length gained relative to control (Spodoptera frugiperda [26]): 42.5%; mortality at 10 µg/mL (Spodoptera frugiperda [27]): 41.7%; mortality at 35 µg/mL (Spodoptera frugiperda [28]): 25%; mortality at 5 µg/mL (Spodoptera frugiperda [29]): 33.3%; LC50 (Drosophila melanogaster): 16.1 µg/mL (≈ 56.2 µM); Activity (Spodoptera frugiperda [30]): 88.3%; mortality at 10 µg/mL (Spodoptera frugiperda [31]): 5.6%; Length gained (% of control) (Spodoptera frugiperda [32]): 37.4%; Activity (Spodoptera frugiperda [33]): 30%; Activity (Spodoptera frugiperda [34]): 41.8%; Length gain relative to control (Spodoptera frugiperda [35]): 33.3%; Growth_index (Spodoptera frugiperda [36]): 0.71
C[C@H]1[C@H](C)CC[C@]2(C(=O)O)CC[C@]3(C)C(=CC[C@@H]4[C@@]5(C)CC[C@H](O)C(C)(C)[C@@H]5CC[C@]43C)[C@H]12 [URSOLIC ACID]	32.5	29.2	48.4	79.1	0	Active	52.9	46.8	52.5	81.5	0	100	0.28	Active	57.2	30.1	0	0.98	91.7	8.9	mortality (Spodoptera frugiperda [10]): Active; inhibition (INH) (Spodoptera frugiperda [11]): 0%; mortality at 5 µg/mL (Spodoptera frugiperda [24]): 79.1%; Weight gain (% of control) (Spodoptera frugiperda [25]): 47.4%; Length gained relative to control (Spodoptera frugiperda [26]): 6.7%; mortality at 10 µg/mL (Spodoptera frugiperda [27]): 16.7%; mortality at 35 µg/mL (Spodoptera frugiperda [28]): 100%; mortality at 5 µg/mL (Spodoptera frugiperda [29]): 4.2%; LC50 (Drosophila melanogaster): 41.3 µg/mL (≈ 90.4 µM); Activity (Spodoptera frugiperda [30]): 68.6%; mortality at 10 µg/mL (Spodoptera frugiperda [31]): 81.3%; Length gained (% of control) (Spodoptera frugiperda [32]): 0%; Activity (Spodoptera frugiperda [33]): 30%; Activity (Spodoptera frugiperda [34]): 28.6%; Length gain relative to control (Spodoptera frugiperda [35]): 3.4%
